Measurements from patent US20240131032A1, “AN ACTIVITY-GUIDED MAP OF ELECTROPHILE-CYSTEINE INTERACTIONS IN PRIMARY HUMAN IMMUNE CELLS” (The Scripps Research Institute, priority 2019, published 2024).
Residues, ends and D or L forms follow the SMILES beside them. *: point of attachment. Cbz = O=C(OCc1ccccc1)*

Legend:
ITK = target: T1, ITK (Homo sapiens, UniProt Q08881); test: Western blot of ITK protein content in T cells; assay type: cell-based; settings: MG132 10 μM
T1 construct: endogenous in cells; host or cells: primary human T cells (αCD3/CD28-stimulated, naïve or expanded)
T1 sequence (Q08881 1-620): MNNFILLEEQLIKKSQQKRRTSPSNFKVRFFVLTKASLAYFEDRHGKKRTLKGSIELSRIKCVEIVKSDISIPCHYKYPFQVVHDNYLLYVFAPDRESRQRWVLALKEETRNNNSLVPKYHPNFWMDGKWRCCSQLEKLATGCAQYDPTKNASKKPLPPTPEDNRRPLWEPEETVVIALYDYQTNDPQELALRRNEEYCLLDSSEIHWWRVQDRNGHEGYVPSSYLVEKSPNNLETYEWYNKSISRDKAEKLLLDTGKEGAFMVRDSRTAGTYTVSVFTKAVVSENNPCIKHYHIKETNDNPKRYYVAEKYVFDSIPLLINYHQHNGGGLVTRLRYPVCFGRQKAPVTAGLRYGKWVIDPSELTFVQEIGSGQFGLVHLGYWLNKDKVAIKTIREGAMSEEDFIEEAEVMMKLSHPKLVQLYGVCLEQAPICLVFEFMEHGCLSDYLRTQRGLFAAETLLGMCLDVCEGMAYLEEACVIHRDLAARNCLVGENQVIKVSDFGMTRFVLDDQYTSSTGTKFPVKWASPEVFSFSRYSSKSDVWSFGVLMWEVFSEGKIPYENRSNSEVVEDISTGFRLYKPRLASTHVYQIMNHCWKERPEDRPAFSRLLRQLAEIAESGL
Method: T cells were treated with DMSO or compounds (5 μM each) for 8 h. […] (F) Quantitation of western blot data, where protein band intensity calculations were made using ImageJ software and represent the mean percentage of DMSO-treated control±SD; n=2-5 independent experiments per group. **p<0.01 by two-tailed unpaired t test with Welch's correction compared to EV-97 treatment. […] Data are presented as the mean percentage of DMSO-treated control±SEM; n=4 independent experiments per group. ****p<0.0001 by two-tailed unpaired t test with Welch's correction compared to DMSO-treated stim control.
Results are from one experiment representative of 2-5 independent experiments. […] Cells were treated with compounds (5 μM each) or DMSO control for 8 h. Protein band intensity calculations were made using ImageJ software and represent the mean percentage of DMSO-treated control±SD; n=2-5 independent experiments per group. **p<0.01 by two-tailed unpaired t test with Welch's correction compared to DMSO-treated stim control. […] Cells treated with DMSO or EV-96 (5 μM) for 1-8 h. Results are from a single experiment representative of 2-4 independent experiments. […] Cells were treated with compounds (5 μM each) or DMSO for 8 h. Results are from one experiment representative of 2 independent experiments.

NuRD complex = test: Expression-based proteomics (TMT-exp) of compound-treated T cells, NuRD complex; assay type: cell-based, human; settings: MG132 10 μM co-treatment, 24 h
Method: FIG. 7B is a scatter plot representation of protein abundance changes caused by BPK-25 (10 μM, 24 h) in two independent replicate experiments, with decreases in NuRD complex components highlighted in red. FIG. 7C is a heatmap of top proteins with decreased abundance in BPK-25-treated T cells showing that the subset of these proteins in the NuRD complex (asterisks) were largely unaltered by other active compounds and blocked in their degradation by co-treatment with the proteasome inhibitor MG132. […] FIG. 7E is a bar graph […] showing time-dependent reductions in NuRD complex members in human T cells treated with BPK-25 (10 μM). Left, representative western blots. Right, quantification of changes in protein. […] FIG. 7G is a heat map showing the changes in cysteine reactivity for NuRD complex members in human T cells treated with BPK-25 and other active compounds.
Freshly isolated T cells (1.6×10^7 cells, 2×10^6 cells/mL in RPMI media) were treated with compound or DMSO for 24 h, pelleted (600 g, 5 min), and washed with PBS (1×10 mL). The cells were then transferred to an Eppendorf tube in additional PBS (1 mL), pelleted (600 g, 5 min), flash frozen, and kept at −80° C. until further analysis. On the first day of the whole proteome TMT protocol, the cells were thawed on ice and lysed in lysis buffer (150 μL, 1 tablet of Roche complete, mini, EDTA-free Protease Inhibitor Cocktail dissolved in 10 mL of PBS) using a probe sonicator (2×8 pulses). Protein concentration was adjusted to 2.0 mg/mL and the samples (100 μL) were transferred to new Eppendorf tubes (1.5 mL) containing urea (48 mg/tube, final urea concentration: 8 M). DTT (5 μL, 200 mM fresh stock in H2O, final DTT concentration: 10 mM) was then added to the tubes and the samples were incubated at 65° C. for 15 min. Following this incubation, iodoacetamide (5 μL, 400 mM fresh stock in H2O, final IA concentration: 20 mM) was added and the samples were incubated in the dark at 37° C. with shaking for 30 min. Ice-cold MeOH (600 μL), CHCl3 (200 μL), and H2O (500 μL) were then added, the mixture was vortexed and centrifuged (10,000 g, 10 min, 4° C.) to afford a protein disc at the interface of CHCl3 and aqueous layers. The top layer was aspirated without perturbing the disk, additional MeOH (600 μL) was added and the proteins were pelleted (10,000 g, 10 min, 4° C.) and used in the next step or stored at −80° C. overnight.
The resulting protein pellets were resuspended in EPPS buffer (160 μL, 200 mM, pH 8) using a probe sonicator (2×6 pulses). […]
The sample became clear after the overnight digestion. At this point, peptide concentration was determined using microBCA assay (Thermo Scientific) according to manufacturer's instructions. […]

BIRC2 = BIRC2 (Homo sapiens, UniProt Q13490); test: Western blot of BIRC2 content in human T cells; settings: MG132 10 μM with EV-3, 24 h
Chain of BIRC2 (Q13490 whole entry): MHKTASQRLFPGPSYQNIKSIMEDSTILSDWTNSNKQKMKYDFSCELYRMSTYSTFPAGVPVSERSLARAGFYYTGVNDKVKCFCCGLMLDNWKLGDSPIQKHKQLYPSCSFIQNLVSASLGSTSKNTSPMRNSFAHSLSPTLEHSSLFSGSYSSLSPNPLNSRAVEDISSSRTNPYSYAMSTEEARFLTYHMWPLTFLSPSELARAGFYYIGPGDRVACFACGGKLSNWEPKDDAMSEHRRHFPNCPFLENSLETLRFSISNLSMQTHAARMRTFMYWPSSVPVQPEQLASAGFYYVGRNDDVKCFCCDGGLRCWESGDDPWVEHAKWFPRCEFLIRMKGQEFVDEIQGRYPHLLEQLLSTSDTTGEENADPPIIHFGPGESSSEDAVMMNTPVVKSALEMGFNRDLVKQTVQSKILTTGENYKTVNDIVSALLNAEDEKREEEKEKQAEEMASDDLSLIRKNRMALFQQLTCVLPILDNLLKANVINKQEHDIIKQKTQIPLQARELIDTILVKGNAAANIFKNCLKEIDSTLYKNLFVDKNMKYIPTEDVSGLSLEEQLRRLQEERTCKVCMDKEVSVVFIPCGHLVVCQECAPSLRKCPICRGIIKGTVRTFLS
Method: All treatments were for 24 h.
All treatments were for 24 h. […] Plasmids expressing FLAG epitope-tagged versions of wild-type (WT) or the indicated cysteine-to-alanine mutants of BIRC2 (C45A) and BIRC3 (C28A) were co-transfected into primary human T cells with mCherry-expressing plasmid to control for transfection efficiency for 24 h. Cells were then treated with DMSO, EV-3 (10 μM), or AT-406 (1 μM) for 24 h and analyzed by anti-FLAG western blotting. […] (G) Quantitation of western blot data, where protein band intensity calculations were made using ImageJ software and represent the mean percentage of DMSO treated control±SEM; n=3 independent experiments per group. *p<0.05; **p<0.01 by two-tailed unpaired t test with Welch's correction compared to respective DMSO treatments.
Western blot analysis was performed on freshly isolated or expanded T cells. For Western blot protein degradation analysis, primary human T cells (2×10^7 cells/treatment) were re-suspended in RPMI media at 2×10^6 cells/mL and treated with the compounds or DMSO at 37° C. in a CO2 containing incubator for 24 h (or otherwise indicated times).

BIRC3 = target: T2, BIRC3 (Homo sapiens, UniProt Q13489); test: Western blot of BIRC3 content in human T cells; assay type: cell-based; settings: MG132 10 μM with EV-3, 24 h
T2 construct: endogenous in cells; host or cells: primary human T cells
T2 sequence (Q13489 whole entry): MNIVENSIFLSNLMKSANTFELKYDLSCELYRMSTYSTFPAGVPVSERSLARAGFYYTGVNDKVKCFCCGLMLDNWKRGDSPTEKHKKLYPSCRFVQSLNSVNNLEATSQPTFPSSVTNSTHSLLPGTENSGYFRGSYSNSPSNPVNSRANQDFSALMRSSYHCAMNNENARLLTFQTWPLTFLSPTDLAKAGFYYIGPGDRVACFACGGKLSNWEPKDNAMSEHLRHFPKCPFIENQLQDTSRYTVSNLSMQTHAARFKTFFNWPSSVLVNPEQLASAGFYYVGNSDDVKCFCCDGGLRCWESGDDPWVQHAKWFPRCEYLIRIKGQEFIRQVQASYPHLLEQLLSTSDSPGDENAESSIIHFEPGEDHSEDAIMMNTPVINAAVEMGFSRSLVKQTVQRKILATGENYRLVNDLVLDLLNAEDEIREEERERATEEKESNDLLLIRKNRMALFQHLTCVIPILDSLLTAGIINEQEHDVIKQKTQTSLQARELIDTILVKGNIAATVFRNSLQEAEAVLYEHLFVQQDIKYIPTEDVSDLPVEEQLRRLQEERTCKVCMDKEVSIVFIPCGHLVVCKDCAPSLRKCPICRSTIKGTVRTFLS

NF-κB = settings: cited from earlier work
ERCC3 = target: T3, ERCC3 (Homo sapiens, UniProt P19447); test: isoTOP-ABPP and TMT-ABPP cysteine engagement, ERCC3; assay type: binding
T3 construct: endogenous in cells; host or cells: primary human T cells
T3 sequence (P19447 1-782): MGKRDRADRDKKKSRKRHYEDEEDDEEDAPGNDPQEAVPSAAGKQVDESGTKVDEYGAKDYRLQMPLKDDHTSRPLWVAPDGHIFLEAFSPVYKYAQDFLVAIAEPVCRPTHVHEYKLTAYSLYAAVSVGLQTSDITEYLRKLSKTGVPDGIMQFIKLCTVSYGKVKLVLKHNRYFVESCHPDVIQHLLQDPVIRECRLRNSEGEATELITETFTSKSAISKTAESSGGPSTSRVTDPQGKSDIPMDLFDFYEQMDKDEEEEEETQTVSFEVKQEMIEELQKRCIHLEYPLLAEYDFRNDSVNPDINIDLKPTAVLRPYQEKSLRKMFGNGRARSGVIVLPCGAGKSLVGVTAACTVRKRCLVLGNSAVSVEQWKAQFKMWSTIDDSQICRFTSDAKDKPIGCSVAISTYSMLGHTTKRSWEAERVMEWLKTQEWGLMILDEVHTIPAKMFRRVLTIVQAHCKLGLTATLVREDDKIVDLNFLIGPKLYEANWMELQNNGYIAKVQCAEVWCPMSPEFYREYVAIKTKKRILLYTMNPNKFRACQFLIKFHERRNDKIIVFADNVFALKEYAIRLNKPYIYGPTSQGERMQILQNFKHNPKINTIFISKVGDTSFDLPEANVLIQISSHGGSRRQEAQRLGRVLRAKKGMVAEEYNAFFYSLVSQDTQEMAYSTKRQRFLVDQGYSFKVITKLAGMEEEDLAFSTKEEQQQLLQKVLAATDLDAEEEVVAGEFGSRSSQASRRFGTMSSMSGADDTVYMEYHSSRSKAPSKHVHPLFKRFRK
Method: Activated or expanded T cells were re-suspended in RPMI media supplemented with 10% FBS, L-glutamine (2 mM), penicillin (100 U/mL), and streptomycin (100 μg/mL) at 2×10^6 cells/mL. The compounds were added to cells as 1000×DMSO stocks and mixed well with the media by pipetting up and down after addition. The cells were kept at 37° C. in 5% CO2 containing incubators for 3 h (or otherwise specified times), then pelleted by centrifugation (524 g, 5 min, 4° C.), washed with cold PBS (10 mL) and transferred to Eppendorf tubes (1 mL PBS). The cells were pelleted again (524 g, 5 min, 4° C.), flash-frozen, and kept at −80° C. until further analysis.
Activated or expanded primary human T cells were re-suspended in RPMI (1×10^6 cells/mL) containing 10% fetal bovine serum (FBS), penicillin (100 U/mL), streptomycin ([…]), and L-glutamine (2 mM). The cells were treated with DMSO or compounds for 3 h, pelleted (524 g, 5 min), washed with PBS, and lysed by sonication (2×8 pulses). Soluble and particulate proteomic fractions were separated by ultracentrifugation (100,000 g, 45 min), and protein concentration was normalized to 1.7 mg/mL using a standard DC protein assay (Bio-Rad). The resulting proteomes were analyzed by competitive isotopic Tandem Orthogonal Proteolysis Activity-Based Protein Profiling (isoTOP-ABPP).
Samples (500 μL, 1.7 mg/mL) were treated with iodoacetamide alkyne (IA-alkyne, 5 μL of 10 mM stock in DMSO, final concentration: 100 μM) for 1 h at ambient temperature. Modified proteins were then conjugated to isotopically labeled, TEV-cleavable biotin tags (TEV-tags) using copper-catalyzed azide-alkyne cycloaddition reaction (CuAAC). Reagents for the CuAAC reaction were pre-mixed prior to their addition to the proteome samples. […]
The heavy/light isoTOP-ABPP ratios (R values) for each unique peptide (DMSO/compound treated) were quantified with in-house CIMAGE software (Weerapana et al., 2010) using default parameters (3 MS1 acquisitions per peak and signal to noise threshold set to 2.5). Site-specific engagement of cysteine residues was assessed by blockade of IA-alkyne probe labeling. […] Ratios for unique peptide sequences were calculated for each experiment; overlapping peptides with the same modified cysteine (e.g., different charge states, elution times or tryptic termini) were grouped together and the median ratio was reported as the final ratio (R). […]

primary human T cells = settings: cited from earlier work

For `CC(C)C[C@@H](C=O)NC(=O)[C@H](CC(C)C)NC(=O)[C@H](CC(C)C)NC(=O)OCc1ccccc1` [MG132, reference compound] (Cbz-Leu-Leu-Leu-aldehyde), which “effect on EV-96-mediated loss of ITK (co-treatment)” value (ITK) is on record?
Its value is “blocked”.

And the “effect on BPK-25-mediated reductions in NuRD complex proteins” value (NuRD complex)?
The value was “blocked”.

And the “effect on EV-3-induced loss of BIRC2” value (BIRC2)?
Its value is “blocks”.

And the “effect on EV-3-induced loss of BIRC3” value (BIRC3)?
Its value is “blocks”.

For `CC(C)[C@]12O[C@H]1[C@@H]1O[C@]13[C@]1(O[C@H]1C[C@H]1C4=C(CC[C@@]13C)C(=O)OC4)[C@@H]2O` [triptolide], which “NF-κB DNA binding activity (has been shown)” value (NF-κB) is on record?
Its value is “without blocking”.

What about the “engagement of C342 of ERCC3” value (ERCC3) of the same compound?
The value was “also targeted”.

And the “effect on T cell activation (has been shown)” value (primary human T cells)?
Its value is “impair T cell activation”.
